Active and inactive are the calls of the source.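 The calls were made as follows: active = Alamar Blue signal falls with dose, AC50 no more than twice the top valid dose; inconclusive = flat curve near half-strength inhibition, or poor fit; inactive = the rest.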
Test system: not listed separately
Assay: growth inhibition of C. albicans isolate, confirmation, CaCi-17 isolate, Alamar Blue, cherry-pick retest (AID 588530)
Settings: C. albicans CaCi-17 growth, Alamar Blue fluorescence, 48 h; at 26 µM (top of the series)
For `O=[N+]([O-])c1ccc(O)c(/C=N/Nc2ccc(Cl)nn2)c1`, the activity change, negative = inhibition was -23.4% (inactive).
For `Cc1ccc(C(=O)c2coc3c2C(=O)C(=O)c2ccccc2-3)cc1`, the activity change, negative = inhibition was 7.03% (inactive).

Test system: C. albicans CaCi-17 growth, Alamar Blue fluorescence, 48 h
Assay: as above
Settings: not given
Work on `Oc1c(C(Nc2nccs2)c2ccc(C(F)(F)F)cc2)ccc2cccnc12` (centres undefined) yielded an AC50 of 4.11 µM.
For `O=[N+]([O-])c1cc(CN2CCN(c3ccccc3)CC2)c(O)c2ncccc12`, the AC50 was 10.6 µM.
In the case of `Oc1ccc(N=Nc2ccc3c(c2)OCCO3)c2ncccc12`, the AC50 is reported as > 52 µM (inactive).
In the case of `CCOC(=O)N1C(=O)C2(CCCCC2)N(c2ccc(C)cc2)C1=S`, the AC50 is reported as 1.3 µM.
For `CN1CCN(C(c2ccc(C(F)(F)F)cc2)c2ccc3cccnc3c2O)CC1` (centres undefined), the AC50 was 8.86 µM.
Work on `CN1CCN(C(c2ccc(C(F)(F)F)cc2)c2cc(Cl)c3cccnc3c2O)CC1` (centres undefined) yielded an AC50 of 6.34 µM.
In the case of `C=CCNC(=S)N/N=C(\C)c1ccccn1`, the AC50 is reported as 8.96 µM.
For `CCCCC(=O)NC(c1ccco1)c1cc(Cl)c2cccnc2c1O` (centres undefined), the AC50 was 24.9 µM.
Work on `O=Nc1c(-c2cccc([N+](=O)[O-])c2)nc2ncccn12` yielded an AC50 of 4.77 µM.
For `C(C#CCCCCCCCCC[n+]1ccccc1)#CCCCCCCCCC[n+]1ccccc1`, the AC50 was 1.52 µM.
Compound `O=C(N/N=C/c1cc2c3c(c1O)CCCN3CCC2)c1ccccc1O` has an AC50 of 4.28 µM.
`COc1ccc(C)cc1N=Nc1ccc(O)c2ncccc12` gave an AC50 of 2.99 µM.
`O=Cc1ccc(O)c2ncccc12` gave an AC50 of 13.7 µM.
For `CCOc1ccc(N=Nc2ccc(O)c3ncccc23)cc1`, the AC50 was 11.6 µM.
For `Oc1ccc(N=Nc2ccc3c(c2)OCCO3)c2cccnc12`, the AC50 was 10.8 µM.
`O=C(Oc1c(Cl)cc(Cl)c2cccnc12)c1ccco1` showed an AC50 of 1.71 µM.
For `COc1cccc(/C=N/Nc2ncnc3scc(-c4ccccc4)c23)c1O`, the AC50 was 12.5 µM.
Compound `Oc1c(C(Nc2nc3ccccc3s2)c2ccco2)ccc2cccnc12` (centres undefined) has an AC50 of 3.97 µM.
For `O=c1ccc(N=Nc2ccccc2)ccc1O`, the AC50 was 4.73 µM.
With `Cc1cc(NC(c2ccc(Cl)cc2)c2ccc3cccnc3c2O)no1` (centres undefined) the AC50 was 2.49 µM.
`CCCCCCC[n+]1ccc(-c2cc[n+](CCCCCCC)cc2)cc1` gave an AC50 of 13.4 µM.
Work on `CCN(CC)S(=O)(=O)c1cc(OC)ccc1N=Nc1ccc(O)c2ncccc12` yielded an AC50 of 15.3 µM.
For `Oc1c(CN2CCN(c3ccc(F)cc3)CC2)cc(Cl)c2cccnc12`, the AC50 was 7.42 µM.
Compound `O=C(Oc1c(Cl)cc(Cl)c2cccnc12)c1cccs1` has an AC50 of 3.29 µM.
In the case of `Oc1c(C(c2ccc(Cl)cc2)N2CCCC2)cc(Cl)c2cccnc12` (centres undefined), the AC50 is reported as 7.68 µM.
Work on `CCN1/C(=C/C=C/c2oc3ccc(-c4ccccc4)cc3[n+]2CC)Oc2ccc(-c3ccccc3)cc21` yielded an AC50 of 2.43 µM.
Compound `COc1cccc(N=Nc2ccc3cccnc3c2O)c1` has an AC50 of 5.37 µM.
With `O=C(N/N=C/c1c(O)ccc2ccccc12)c1cccc(C(F)(F)F)c1` the AC50 was > 52 µM (inactive).
For `Oc1c(CN2CCN(c3ccccc3)CC2)cc(Br)c2cccnc12`, the AC50 was > 52 µM (inactive).
With `CCCCC(=O)NC(c1ccc(N(CC)CC)cc1)c1ccc2cccnc2c1O` (centres undefined) the AC50 was 3.73 µM.
With `COc1cccc(N=Nc2ccc(O)c3ncccc23)c1` the AC50 was 3.91 µM.
For `C/C(=N\NC(=O)c1cc2ccccc2cc1O)c1ccccn1`, the AC50 was 5.02 µM.

Reference: PubChem BioAssay AID588530 (Broad Institute, 2011)
